Test system: E15 cortex and striatum cells
Test: Cellular localization of biotinylated peptides by confocal microscopy (fluorescent streptavidin)
Assay type: cell-based
Settings: 2 h
Procedure: The cells were then washed, fixed and stained with fluorescent streptavidin.
The entry of the peptides of Table II was tested only by confocal microscopy; indeed, the absence of lysine in these peptides makes the attachments very difficult and therefore requires a very rapid observation which is incompatible with transfers onto filters or ELISA tests (multiple washes).
The E15 cortex and striatum cells are cultured on glass coverslips at a density of 25,000 cells/cm^2 for 2 days. The peptides are all added at a final concentration of 20 μM. […] The sections observed by confocal microscopy are presented in FIGS. 3 (37° C.) and 4 (4° C.). The cells which have integrated the peptide appear fluorescent, on a black background.
E15 cortex and striatum cells are cultured on glass coverslips at a density of 25,000 cells/cm^2 for 2 days. The peptides are added at a final concentration of 20 μM for peptide 43-58 and of 2 μM for the others and the cells are incubated for 2 h at 37° C. […] The results are illustrated in FIG. 6.

Substance | internalization and cytoplasmic and nuclear addressing (localization) (2 μM, 37° C., streptavidin-FITC) | internalization (20 μM, 37° C. and 4° C.) | nuclear addressing (20 μM, 37° C. and 4° C.)
Biot-Apa-Arg-Leu-Arg-Arg-Leu-Leu-Arg-Arg-Leu-Leu-Arg-Arg-Leu-Arg-Arg [L/R] | found in a fraction which is apparently of the vesicular type, probably of endocytic character | – | –
Biot-Apa-Arg-Gln-Pro-Lys-Ile-Trp-Phe-Pro-Asn-Arg-Arg-Lys-Pro-Trp-Lys-Lys [3Pro] | – | does not prevent internalization | appears to interfere with nuclear addressing

From US6080724A, “Peptides which can be used as vectors for the intracellular addressing of active molecules” (Centre National de la Recherche Scientifique (CNRS), priority 1995, dated 2000)
